The record followed here is patent US12624044B2, “SMARCA degraders and uses thereof” (Kymera Therapeutics, Inc., priority 2019, dated 2026).

The experiment has as its target SMARCA2 (Homo sapiens, UniProt P51531). The experiment can be described thus: MSD SMARCA2 degradation in NCI-H1299 cell line (24 h). In kind it is cell-based. The settings on record: for Dmax: NCI-H1299, NCI-H1299 cells; for DC50: NCI-H1299 cells, read-out: SMARCA2 MSD H1299 degradation 24 h: External Abs-DC50. On the set-up: HC: NCI-H1299 cells treated with DMSO; host or cells: NCI-H1299. In a few lines: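 SMARCA2 measured by MSD electrochemiluminescence (primary 0.3 ug/ml, secondary 1 ug/ml) on lysates from NCI-H1299 cells exposed to compounds for 24 h across nine 3-fold dilutions. Signal scaled from A2780 cells (no SMARCA2) to DMSO-treated H1299 controls, and maximal degradation after 24 h reported in letter categories.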

Each structure is given as a SMILES string. A value given as a limit tells only on which side of the number the result lay.

Chain of SMARCA2 (P51531 whole entry): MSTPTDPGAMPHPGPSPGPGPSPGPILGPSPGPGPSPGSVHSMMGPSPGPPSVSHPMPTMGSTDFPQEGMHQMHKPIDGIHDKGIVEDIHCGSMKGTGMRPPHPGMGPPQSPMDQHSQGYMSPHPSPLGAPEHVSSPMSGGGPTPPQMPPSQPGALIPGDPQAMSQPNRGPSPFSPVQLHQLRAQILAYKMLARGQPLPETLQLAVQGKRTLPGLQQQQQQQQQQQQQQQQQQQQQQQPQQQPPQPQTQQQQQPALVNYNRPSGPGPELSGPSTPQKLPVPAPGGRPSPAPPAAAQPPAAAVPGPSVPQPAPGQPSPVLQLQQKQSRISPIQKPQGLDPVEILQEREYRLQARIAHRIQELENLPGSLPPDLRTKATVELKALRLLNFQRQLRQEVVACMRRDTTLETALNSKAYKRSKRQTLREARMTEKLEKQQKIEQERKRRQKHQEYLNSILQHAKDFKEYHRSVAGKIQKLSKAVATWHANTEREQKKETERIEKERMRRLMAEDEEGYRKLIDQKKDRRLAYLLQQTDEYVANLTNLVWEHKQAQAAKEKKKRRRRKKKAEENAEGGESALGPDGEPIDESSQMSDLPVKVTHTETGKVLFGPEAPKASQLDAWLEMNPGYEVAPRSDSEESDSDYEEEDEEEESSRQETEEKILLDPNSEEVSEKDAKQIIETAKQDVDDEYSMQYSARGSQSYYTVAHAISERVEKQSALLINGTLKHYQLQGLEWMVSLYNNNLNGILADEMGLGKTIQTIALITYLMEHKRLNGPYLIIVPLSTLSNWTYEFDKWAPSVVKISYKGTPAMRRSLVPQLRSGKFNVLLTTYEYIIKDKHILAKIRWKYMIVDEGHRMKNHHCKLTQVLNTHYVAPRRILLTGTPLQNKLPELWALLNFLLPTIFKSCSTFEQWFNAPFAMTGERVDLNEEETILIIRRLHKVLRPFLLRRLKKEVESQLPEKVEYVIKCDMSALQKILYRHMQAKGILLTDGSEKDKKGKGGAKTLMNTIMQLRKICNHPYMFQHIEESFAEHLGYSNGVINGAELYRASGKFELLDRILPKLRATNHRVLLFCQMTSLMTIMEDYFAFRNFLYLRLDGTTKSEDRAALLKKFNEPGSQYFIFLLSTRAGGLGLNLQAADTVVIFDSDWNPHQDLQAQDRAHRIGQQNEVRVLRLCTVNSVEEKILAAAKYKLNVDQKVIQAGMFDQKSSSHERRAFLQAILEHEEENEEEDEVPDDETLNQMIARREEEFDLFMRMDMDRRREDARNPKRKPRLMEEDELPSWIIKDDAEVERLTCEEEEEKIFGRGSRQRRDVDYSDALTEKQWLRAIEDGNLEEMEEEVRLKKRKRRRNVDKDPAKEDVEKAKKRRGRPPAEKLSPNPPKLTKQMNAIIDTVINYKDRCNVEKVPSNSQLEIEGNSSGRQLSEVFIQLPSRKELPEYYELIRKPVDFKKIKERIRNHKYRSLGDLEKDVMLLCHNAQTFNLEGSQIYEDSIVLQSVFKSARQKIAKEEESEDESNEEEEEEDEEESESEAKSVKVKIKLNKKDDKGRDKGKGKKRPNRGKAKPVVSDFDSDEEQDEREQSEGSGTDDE

A word on the Dmax: it is the largest share of the target that was removed. Higher therefore signals a fuller loss of target. One may read the DC50 as the midpoint of the concentration-degradation curve. Take `Cn1c(=O)n(C2CCC(=O)NC2=O)c2cccc(CCCN3CCC(n4cc(-c5cc(-c6ccccc6O)nnc5N)cn4)CC3)c21` (stereo not shown) [I-174, 3-[4-[3-[4-[4-[3-amino-6-(2-hydroxyphenyl)pyridazin-4-yl]pyrazol-1-yl]-1-piperidyl]propyl]-3-methyl-2-oxo-benzimidazol-1-yl]piperidine-2,6-dione]: the Dmax is more than 90% and the DC50 was less than 100 nM.
For `Cn1c(=O)n(C2CCC(=O)NC2=O)c2cccc(CCCCCN3CCC(n4cc(-c5cc(-c6ccccc6O)nnc5N)cn4)CC3)c21` (stereo not shown) [I-175], in that order: more than 90% and less than 100 nM.
For `Cn1c(=O)n(C2CCC(=O)NC2=O)c2cccc(CCCCCCCN3CCC(n4cc(-c5cc(-c6ccccc6O)nnc5N)cn4)CC3)c21` (stereo not shown) [I-176] the same measures were 70 to 90% and less than 100 nM.
For `Cn1c(=O)n(C2CCC(=O)NC2=O)c2ccc(CN3CCCC(n4cc(-c5cc(-c6ccccc6O)nnc5N)cn4)C3)cc21` (stereo not shown) [I-177] the same measures were 70 to 90% and less than 100 nM.
For `Cn1c(=O)n(C2CCC(=O)NC2=O)c2ccc(CCCN3CCCC(n4cc(-c5cc(-c6ccccc6O)nnc5N)cn4)C3)cc21` (stereo not shown) [I-178], the Dmax is 70 to 90% and the DC50 is less than 100 nM.
With `Cn1c(=O)n(C2CCC(=O)NC2=O)c2ccc(CCCCCN3CCCC(n4cc(-c5cc(-c6ccccc6O)nnc5N)cn4)C3)cc21` (stereo not shown) [I-179], the Dmax lay within 50 to 70% and the DC50 is 100 to 500 nM.
For `Cn1c(=O)n(C2CCC(=O)NC2=O)c2ccc(CCCCCCCN3CCCC(n4cc(-c5cc(-c6ccccc6O)nnc5N)cn4)C3)cc21` (stereo not shown) [I-180], in that order: less than 50% and more than 1000 nM.
With `Cn1c(=O)n(C2CCC(=O)NC2=O)c2ccc(CN3CCC(n4cc(-c5cc(-c6ccccc6O)nnc5N)cn4)CC3)cc21` (stereo not shown) [I-181], the Dmax is less than 50% and the DC50 was more than 1000 nM.
For `Cn1c(=O)n(C2CCC(=O)NC2=O)c2ccc(CCCN3CCC(n4cc(-c5cc(-c6ccccc6O)nnc5N)cn4)CC3)cc21` (stereo not shown) [I-182] the same measures were 50 to 70% and 100 to 500 nM.
For `Cn1c(=O)n(C2CCC(=O)NC2=O)c2ccc(CCCCCN3CCC(n4cc(-c5cc(-c6ccccc6O)nnc5N)cn4)CC3)cc21` (stereo not shown) [I-183] the same measures were 70 to 90% and less than 100 nM.
For `Cn1c(=O)n(C2CCC(=O)NC2=O)c2ccc(CCCCCCCN3CCC(n4cc(-c5cc(-c6ccccc6O)nnc5N)cn4)CC3)cc21` (stereo not shown) [I-184] the same measures were less than 50% and more than 1000 nM.
On to `Cn1c(=O)n(C2CCC(=O)NC2=O)c2cccc(CCCCCCCCN3CCN(c4cc(-c5ccccc5O)nnc4N)CC3)c21` (stereo not shown) [I-185], for which the Dmax was less than 50% and the DC50 is more than 1000 nM.
For `Cn1c(=O)n(C2CCC(=O)NC2=O)c2ccc(CCc3cnc(N4C5CCC4CN(c4cc(-c6ccccc6O)nnc4N)C5)nc3)cc21` (stereo not shown) [I-186, 3-[5-[2-[2-[3-[3-amino-6-(2-hydroxyphenyl)pyridazin-4-yl]-3,8-diazabicyclo[3.2.1]octan-8-yl]pyrimidin-5-yl]ethyl]-3-methyl-2-oxo-benzimidazol-1-yl]piperidine-2,6-dione], in that order: 50 to 70% and 100 to 500 nM.
Regarding `CN1C(=O)CCC(n2c(=O)n(C)c3cc(CCCCCCCc4cnc(N5C6CCC5CN(c5cc(-c7ccccc7O)nnc5N)C6)nc4)ccc32)C1=O` (stereo not shown) [I-187], the Dmax is less than 50% and the DC50 is more than 1000 nM.
For `Cn1c(=O)n(C2CCC(=O)NC2=O)c2cccc(CCCN3CCC[C@@H](Cn4cc(-c5cc(-c6ccccc6O)nnc5N)cn4)C3)c21` (stereo partly shown) [I-188] the same measures were 70 to 90% and 100 to 500 nM.
For `Cn1c(=O)n(C2CCC(=O)NC2=O)c2cccc(CCCCN3CCC[C@@H](Cn4cc(-c5cc(-c6ccccc6O)nnc5N)cn4)C3)c21` (stereo partly shown) [I-189], in that order: more than 90% and less than 100 nM.
Take `Cn1c(=O)n(C2CCC(=O)NC2=O)c2cccc(CCCCCN3CCC[C@@H](Cn4cc(-c5cc(-c6ccccc6O)nnc5N)cn4)C3)c21` (stereo partly shown) [I-190]: the Dmax is 70 to 90% and the DC50 is 100 to 500 nM.
